What was measured:
Conditions in all cases: 72 h
Vero E6 [1] = assay: cell viability relative to DMSO; higher = less toxic
HepG2 [2] = assay: as above
Caco-2 [3] = assay: as above
U2OS [4] = assay: as above
Calu-3 [5] = assay: as above
Vero E6 [6] = assay: relative viability EC50 (midpoint between 100% and the lowest measured viability); higher = less toxic
HepG2 [7] = assay: as above
Caco-2 [8] = assay: as above
U2OS [9] = assay: as above
Calu-3 [10] = assay: as above
Vero E6 [11] = assay: drug sensitivity score (DSS) for viability; higher = more toxic; extreme values may be limits of the assay
HepG2 [12] = assay: as above
Caco-2 [13] = assay: as above
U2OS [14] = assay: as above
Calu-3 [15] = assay: as above

SMILES	cell viability (Vero E6 [1]; 1 nM) [%]	cell viability (Vero E6 [1]; 10 nM) [%]	cell viability (Vero E6 [1]; 100 nM) [%]	cell viability (Vero E6 [1]; 1000 nM) [%]	cell viability (Vero E6 [1]; 10000 nM) [%]	cell viability (HepG2 [2]; 1 nM) [%]	cell viability (HepG2 [2]; 10 nM) [%]	cell viability (HepG2 [2]; 100 nM) [%]	cell viability (HepG2 [2]; 1000 nM) [%]	cell viability (HepG2 [2]; 10000 nM) [%]	cell viability (Caco-2 [3]; 1 nM) [%]	cell viability (Caco-2 [3]; 10 nM) [%]	cell viability (Caco-2 [3]; 100 nM) [%]	cell viability (Caco-2 [3]; 1000 nM) [%]	cell viability (Caco-2 [3]; 10000 nM) [%]	cell viability (U2OS [4]; 1 nM) [%]	cell viability (U2OS [4]; 10 nM) [%]	cell viability (U2OS [4]; 100 nM) [%]	cell viability (U2OS [4]; 1000 nM) [%]	cell viability (U2OS [4]; 10000 nM) [%]	cell viability (Calu-3 [5]; 1 nM) [%]	cell viability (Calu-3 [5]; 10 nM) [%]	cell viability (Calu-3 [5]; 100 nM) [%]	cell viability (Calu-3 [5]; 1000 nM) [%]	cell viability (Calu-3 [5]; 10000 nM) [%]	relative viability EC50 (Vero E6 [6]) [µM]	relative viability EC50 (HepG2 [7]) [µM]	relative viability EC50 (Caco-2 [8]) [µM]	relative viability EC50 (U2OS [9]) [µM]	relative viability EC50 (Calu-3 [10]) [µM]	drug sensitivity score (Vero E6 [11])	drug sensitivity score (HepG2 [12])	drug sensitivity score (Caco-2 [13])	drug sensitivity score (U2OS [14])	drug sensitivity score (Calu-3 [15])
CNC(=O)O[C@H]1COc2ccc(N3CCN(C4COC4)CC3)cc2[C@@H]1NC(=O)c1ccc(F)cc1	101	98.2	106	104	94.1	94.9	101	94.4	105	91.8	90.5	103	89.9	101	98.5	96.6	101	95.7	104	102	106	88.4	92.1	95.4	101	> 10	> 10	> 10	> 10	> 10	0	0	0	0	0
Cc1cc(N2CCOCC2)cc2[nH]c(-c3c(NC[C@@H](O)c4cccc(Cl)c4)cc[nH]c3=O)nc12	89.3	101	90.6	90.2	49.9	101	101	80.2	58.8	31.2	102	93.9	99.4	76.8	43	97.2	97.2	95.9	78	22.5	89.8	102	96.7	81.9	38.3	1.75	0.45	1.16	1.45	1.44	4.3	10.1	6.2	7.6	6
Cc1ccc(S(=O)(=O)c2ccc([N+](=O)[O-])o2)cc1	94.6	99.1	97.9	98.5	-0.1	84.3	100	102	86.7	0	97.1	96.6	105	87.6	0	97.5	95.1	109	72.4	0	98	89.7	101	89.9	0	3.06	2.09	2.16	1.47	2.33	5.8	7.8	7.6	9.6	7.2
Cc1cccc(NC(=O)c2ccc(C(F)(F)F)cc2C(=O)O)n1	99.7	99.8	105	104	106	103	96.8	105	108	102	99.5	101	101	98	105	100	102	97	97	104	103	95	94.5	106	98.6	> 10	> 10	> 10	> 10	> 10	0	0	0	0	0
Cn1ncc2c(N3CCOCC3)nc(-c3cccc(O)c3)nc21	100	102	98.9	78	30.9	100	101	111	95.6	19.8	99.9	108	94.5	61.5	25.2	98.8	99.6	99.3	90.6	28.9	86.3	102	83.7	79.1	24.5	1.35	2.74	0.938	2.1	1.64	7	5.1	8.7	5.5	6.7
N#Cc1cccc(-c2c[nH]c3ncnc(N4CCOCC4)c23)c1	98.1	96	98.9	97.7	95.9	89.8	99.8	102	105	106	104	98.2	105	107	118	106	99.2	102	98.5	105	99	104	103	99.6	115	> 10	> 10	> 10	> 10	> 10	0	0	0	0	0
O=C(NC1CCOCC1)c1ccc(-c2cc(-c3c[nH]nc3-c3ccccn3)ccn2)cc1	93.4	103	98.8	107	102	96.2	99.9	94.8	104	93.8	91	97.2	100	95.7	93.9	98.2	98.4	100	94.4	92.2	101	120	103	99.6	108	> 10	> 10	> 10	> 10	> 10	0	0	0	0	0
O=C(NCc1ccncc1)C12CC3CC(C1)CC(c1ccc(Cl)cc1)(C3)C2	102	104	104	105	89.3	96.7	107	105	98	93.7	99.6	94.9	98.6	96	92.9	97.4	99.2	101	97.8	93.5	104	100	89	92.2	89.3	> 10	> 10	> 10	> 10	> 10	0	0	0	0	0.5
O=C(O)c1cc(C(=O)O)c(C(=O)N(Cc2cccc(Oc3ccccc3)c2)[C@H]2CCCc3ccccc32)cc1C(=O)O	98.2	102	96.9	98.9	102	98.5	106	102	107	98.4	106	99.1	90.4	99.8	103	102	94.4	99.4	91.3	109	102	98.8	103	104	106	> 10	> 10	> 10	> 10	> 10	0	0	0	0	0
CCOc1ccc(-n2c([C@@H](C)N(Cc3cccnc3)C(=O)Cc3ccc(F)c(C(F)(F)F)c3)nc3ncccc3c2=O)cc1 (racemic)	96	97.2	98.6	103	105	105	100	97.9	108	93.7	103	97.6	99.3	99.9	90	104	96	96.2	99.2	95.9	93.8	91	92.8	95.2	88.4	> 10	> 10	> 10	> 10	> 10	0	0	0	0	0
O=C1CC2(CCCC2)CC(=O)N1CCCCNC[C@H]1COc2ccccc2O1 (racemic)	103	101	101	97	98.6	99	112	106	101	110	97.8	98.2	93.8	98.3	86	104	102	101	104	97.8	96.9	103	96.9	94.2	85.3	> 10	> 10	> 10	> 10	> 10	0	0	0.3	0	0.3

— the supplement of paper PMC13380429
